Results taken from US8273738B2, “Imidazole derivatives” (priority 2006, dated 2012).

What was measured:
[1] = system: rats with chronic constriction nerve injury; test: Analgesic effect in rats with chronic constriction nerve injury (von Frey filament); format: in vivo, rat; settings: oral, dose of 50 mg/kg or less, one hour after administration, von Frey filaments
From the text: Rats with chronic constriction nerve injury were produced by partially modifying the method of Mosconi and Kruger et al. (Pain, vol. 64, pp. 37-57 (1996))
Male Crl:CD(SD) rats were used for the experiments. Under pentobarbital anesthesia, the sciatic nerve of the left hind limb of the rat was exfoliated, and the exfoliated region was wrapped with a polyethylene tube (trade name: Intramedic, size: PE-60, manufactured by Becton Dickinson and Company) of 2 mm in length. On days 14 to 21 after the surgery, the rats were placed in an acrylic connected cage with a wire mesh floor (900 mm (length)×210 mm (depth)×140 mm (height)) consisting of 4 cages connected in a row and allowed to acclimate to the environment for at least 20 minutes, and then, the pain was evaluated.
The von Frey filament (trade name: touch test sensory evaluator, Model number: model 58011, manufactured by Muromachi Kikai) was used to evaluate pain, and the results were calculated as a pain threshold. That is, by using a von Frey filament of different stimulus intensity, stimulation was given to the plantar surface of the injured side of rats with chronic constriction nerve injury, and the stimulus intensity to cause paw withdrawal response was obtained. Then, the 50% pain threshold (Paw withdrawal threshold) (g) was calculated by the up down method of Dixon [Annual Review of Pharmacology and Toxicology, vol. 20, pp. 441-462 (1980)].
In the evaluation of the test compound, rats with 50% pain threshold of less than 4 g were used, and the test compound was dissolved in a 0.5% aqueous methyl cellulose solution and orally administered at a dose of 5 mL/kg. One hour after the administration, the pain threshold was measured using von Frey filaments.

[2] = biological target: T1, CB2 receptor (Rattus norvegicus, UniProt Q9QZN9); test: Cannabinoid CB2 receptor-binding activity ([3H]CP55940 binding experiment), rat spleen membrane specimen
T1 construct: from tissue; host or cells: rat spleen membrane specimen
T1 sequence (Q9QZN9 1-360): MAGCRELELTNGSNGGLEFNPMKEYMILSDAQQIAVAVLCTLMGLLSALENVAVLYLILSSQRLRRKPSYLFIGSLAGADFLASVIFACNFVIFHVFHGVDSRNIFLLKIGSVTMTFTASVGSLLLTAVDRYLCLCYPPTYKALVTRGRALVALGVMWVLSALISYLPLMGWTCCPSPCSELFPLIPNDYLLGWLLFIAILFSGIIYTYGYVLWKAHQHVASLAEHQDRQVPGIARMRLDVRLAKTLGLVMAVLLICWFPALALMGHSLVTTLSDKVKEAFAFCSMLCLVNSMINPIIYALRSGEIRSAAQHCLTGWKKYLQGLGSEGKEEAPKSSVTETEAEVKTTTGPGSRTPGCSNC
Experimental: A test was carried out according to the method of Hillard et al. [The Journal of Pharmacology and Experimental Therapeutics, vol. 289, p. 1427 (1999)]. A rat forebrain membrane specimen and a rat spleen membrane specimen were prepared and used in a binding experiment for a CB1 receptor and a binding experiment for a CB2 receptor, respectively. The membrane specimen (forebrain: final concentration of 0.5 mg of protein/mL, spleen: final concentration of 2 mg of protein/mL) was incubated together with a test compound and [^3H]CP55940 (manufactured by PerkinElmer) ((−)-cis-3-[2-hydroxy-[3,5-^3H]-4-(1,1-dimethylheptyl)phenyl]-trans-4-(3-hydroxypropyl)cyclohexanol)) (final concentration: 0.5 nmol/L) in an assay buffer (50 mmol/L Tris-HCl buffer (pH 7.4), 1 mmol/L EDTA and 3 mmol/L MgCl2) containing 0.1% bovine serum albumin at 25° C. for 1 hour, and the resulting mixture was filtered using a glass filter GF/C (manufactured by Whatman) treated with 1% polyethyleneimine. After the glass filter was washed with the assay buffer containing 0.2% bovine serum albumin, the radioactivity on the glass filter was measured using a liquid scintillation counter (TRI-CARB 2700TR, manufactured by Packard). The binding amount in the presence of 10 μmol/L […] (manufactured by Tocris) ((R)-(+)-[2,3-dihydro-5-methyl-3-(4-morpholinylmethyl)pyrrolo[1,2,3-de]-1,4-benzoxazin-6-yl]-1-naphthalenylmethanone) was considered to be a non-specific binding amount, and a difference between the total binding amount and the non-specific binding amount was considered to be a specific binding amount. The 50% inhibitory concentration (IC50 value) of the test compound against the specific binding was obtained, and the Ki value of the test substance was calculated from the 50% inhibitory concentration and the Kd value of the [^3H]CP55940 binding.

[3] = biological target: T2, human CB2 receptor (Homo sapiens, UniProt P34972); test: GTPγS binding experiment via human CB2 receptor (membrane fraction of CHO-K1 cells); format: biochemical; settings: for Emax: read-out: Emax value (maximum effect of CP55940 as 100%)
T2 construct: expressed in transfected cells
T2 sequence (P34972 whole entry): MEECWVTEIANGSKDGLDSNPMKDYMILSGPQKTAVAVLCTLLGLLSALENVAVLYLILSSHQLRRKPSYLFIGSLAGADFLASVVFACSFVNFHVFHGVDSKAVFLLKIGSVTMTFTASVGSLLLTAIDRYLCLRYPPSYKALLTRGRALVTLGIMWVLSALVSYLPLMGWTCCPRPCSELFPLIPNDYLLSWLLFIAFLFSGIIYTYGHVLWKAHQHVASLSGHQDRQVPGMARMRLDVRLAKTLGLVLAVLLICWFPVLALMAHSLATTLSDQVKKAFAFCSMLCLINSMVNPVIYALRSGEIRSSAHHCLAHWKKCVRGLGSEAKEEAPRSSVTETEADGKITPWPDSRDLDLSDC
Experimental: A test was carried out according to the method of Hillard et al. [The Journal of Pharmacology and Experimental Therapeutics, vol. 289, p. 1427 (1999)]. As for a membrane specimen, a membrane fraction was prepared from CHO-K1 cells in which a human CB2 receptor [Nature, vol. 365, pp. 61-65 (1993)] was stably expressed and used. The membrane specimen (final concentration: 40 μg of protein/mL) was incubated together with a test compound and [^35S]GTPγS (manufactured by PerkinElmer) (final concentration: 0.05 nmol/L) in an assay buffer (50 mmol/L Tris-HCl buffer (pH 7.4), 100 mmol/L NaCl, 1 mmol/L EDTA, 3 mmol/L MgCl2, and 0.1% bovine serum albumin) containing 20 μmol/L guanosine 5′-diphosphate (GDP) at 30° C. for 1 hour, and the resulting mixture was filtered using a glass filter GF/B (manufactured by Whatman). After the glass filter was washed with the assay buffer, the radioactivity on the glass filter was measured using a liquid scintillation counter (TRI-CARB 2700TR, manufactured by Packard). The binding amount in the presence of 10 μmol/L GTPγS was considered to be a non-specific binding amount, and a difference between the total binding amount and the non-specific binding amount was considered to be a specific binding amount. The ratio of increase in the specific binding amount in the presence of the test compound to the specific binding amount in the absence of the test compound was considered to be an agonistic activity of the test compound. The concentration of the test compound that produces 50% of the maximum effect (EC50 value) was calculated by performing a nonlinear regression analysis using the concentration-response data. The percentage of the maximum effect of the test compound (Emax value) was calculated by considering the maximum effect of CP55940 (manufactured by Tocris) measured at the same time as 100%.

Structure (SMILES) | 50% pain threshold (paw withdrawal threshold) [1] | Ki [2] [µM] | EC50 [3] [µM] | Emax [3] [%]
CN(C(=O)c1cncc(-c2cn(CC3CCOCC3)c(C(C)(C)C)n2)n1)C1CC1 [Compound 205, 6-[2-tert-Butyl-1-(tetrahydropyran-4-ylmethyl)-1H-imidazol-4-yl]-N-cyclopropyl-N-methylpyrazine-2-carboxamide] | significantly increased the pain threshold | < 1 | < 1 | > 30
CN(CC1CC1)C(=O)c1cncc(-c2cn(CC3CCOCC3)c(C(C)(C)C)n2)n1 [Compound 206, 6-[2-tert-Butyl-1-(tetrahydropyran-4-ylmethyl)-1H-imidazol-4-yl]-N-cyclopropylmethyl-N-methylpyrazine-2-carboxamide] | significantly increased the pain threshold | < 1 | < 1 | > 30
